Measured values: PubChem BioAssay (NCI)
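Growth conditions: 96-well plates. Treatment: test compound, 48 hours, 5 concentrations. Analysis: linear interpolation between bracketing concentrations; unreached endpoints set to highest concentration. Abbreviation: GI50, concentration required for 50% inhibition of growth. TGI denotes the concentration required for complete inhibition of growth.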

Key:
Test in all cases: growth of human tumour cells (NCI), 48 h
MDA-MB-231 breast = test system: MDA-MB-231 breast
MCF7 breast = test system: MCF7 breast
MDA-MB-435 = test system: MDA-MB-435
A498 renal = test system: A498 renal
NCI-H226 lung = test system: NCI-H226 lung
TK-10 renal = test system: TK-10 renal
ACHN renal = test system: ACHN renal
SNB-75 CNS = test system: SNB-75 CNS
NCI/ADR-RES ovarian = test system: NCI/ADR-RES ovarian
SK-OV-3 ovarian = test system: SK-OV-3 ovarian
SK-MEL-28 melanoma = test system: SK-MEL-28 melanoma
SN12C renal = test system: SN12C renal
CAKI-1 renal = test system: CAKI-1 renal
T-47D breast = test system: T-47D breast
HL-60(TB) leukemia = test system: HL-60(TB) leukemia
SK-MEL-2 melanoma = test system: SK-MEL-2 melanoma
COLO 205 colon = test system: COLO 205 colon
UACC-62 melanoma = test system: UACC-62 melanoma
DU-145 prostate = test system: DU-145 prostate
KM12 colon = test system: KM12 colon
HS 578T breast = test system: HS 578T breast
UACC-257 melanoma = test system: UACC-257 melanoma
OVCAR-5 ovarian = test system: OVCAR-5 ovarian
SF-539 CNS = test system: SF-539 CNS
OVCAR-4 ovarian = test system: OVCAR-4 ovarian

## Cc1ccc(NC(=O)c2ccc(CN3CCN(C)CC3)c(I)c2)cc1Oc1ccc(-c2[nH]nc3ncnc(N)c23)cc1
MDA-MB-231 breast
  GI50: 1.85 µM
  TGI: 3.47 µM
MCF7 breast
  GI50: 1.35 µM
  TGI: 2.94 µM
MDA-MB-435
  GI50: 1.58 µM
  TGI: 3.01 µM
A498 renal
  GI50: 18.8 µM
  TGI: 38.3 µM
NCI-H226 lung
  GI50: 23.2 µM
  TGI: 84.9 µM
TK-10 renal
  GI50: 5.33 µM
  TGI: 28 µM
ACHN renal
  GI50: 1.8 µM
  TGI: 3.33 µM
SNB-75 CNS
  GI50: 0.458 µM
  TGI: 20.8 µM
NCI/ADR-RES ovarian
  GI50: 3.93 µM
  TGI: 40.7 µM
SK-OV-3 ovarian
  GI50: 26.2 µM
  TGI: 63.9 µM
SK-MEL-28 melanoma
  GI50: 1.63 µM
  TGI: 3.12 µM
SN12C renal
  GI50: 12.1 µM
  TGI: 33.8 µM
CAKI-1 renal
  GI50: 12 µM
  TGI: 28.1 µM
T-47D breast
  GI50: 2.72 µM
  TGI: > 100 µM
HL-60(TB) leukemia
  GI50: 4.42 µM
  TGI: > 100 µM
SK-MEL-2 melanoma
  GI50: 24.7 µM
  TGI: 80.1 µM
COLO 205 colon
  GI50: 1.73 µM
  TGI: 5.08 µM
UACC-62 melanoma
  GI50: 1.73 µM
  TGI: 3.35 µM
DU-145 prostate
  GI50: 1.88 µM
  TGI: 3.45 µM
KM12 colon
  GI50: 1.79 µM
  TGI: 3.59 µM
HS 578T breast
  GI50: 1.77 µM
  TGI: 5.09 µM
UACC-257 melanoma
  GI50: 2.03 µM
  TGI: 4.59 µM
OVCAR-5 ovarian
  GI50: 1.94 µM
  TGI: 3.52 µM
SF-539 CNS
  GI50: 1.26 µM
  TGI: 2.68 µM
OVCAR-4 ovarian
  GI50: 18 µM
  TGI: 40.7 µM
